Legend:
Assay type in all cases: cell-based
SOX18 [1] = molecular target: T1, SOX18 (Mus musculus, UniProt P43680); test: VCAM-1 luciferase reporter assay in COS-7 cells transfected with Vcam-1 promoter construct and SOX18; conditions: VCAM-1 promoter luciferase, 24 hr compound incubation, % of maximal signal without compound
T1 construct: expressed in transfected cells; host or cells: COS-7 (monkey kidney fibroblast-like cells)
T1 sequence (P43680 1-377): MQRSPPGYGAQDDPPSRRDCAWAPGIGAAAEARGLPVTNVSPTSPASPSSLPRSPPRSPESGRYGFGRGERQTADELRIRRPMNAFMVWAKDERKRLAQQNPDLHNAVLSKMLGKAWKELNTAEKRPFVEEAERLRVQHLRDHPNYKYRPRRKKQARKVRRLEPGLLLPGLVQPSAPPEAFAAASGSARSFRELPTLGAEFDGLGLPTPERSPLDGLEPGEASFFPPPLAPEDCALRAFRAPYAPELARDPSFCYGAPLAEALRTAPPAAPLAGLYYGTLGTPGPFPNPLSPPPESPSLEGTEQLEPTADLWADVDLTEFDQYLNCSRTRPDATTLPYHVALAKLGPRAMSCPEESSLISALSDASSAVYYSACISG
Protocol: Monkey kidney fibroblast-like cells (COS-7) were cultured at 37° C. and 5% CO2 in DMEM (Life Technologies, 11995) with fetal bovine serum (FBS), sodium pyruvate, L-glutamine, penicillin, streptomycin, non-essential amino acids, and HEPES. Cells were grown in 96-well plates to 80% confluence and transfected with mouse plasmids pGL2 Vcam-1 promoter construct (VC1889) and pReceiver M49 SOX18, using X-tremeGENE HP DNA transfection reagent (Roche, 6366236001). After 4 hr of transfection, cells were incubated with compounds in 0.5% FBS medium for another 24 hr, before lysis and luciferase assay (Perkin Elmer, 6016711). Results are presented as %inhibition of the maximal signal observed in cells transfected with VCAM-1 and SOX18 without compound incubation.
The second assay measured the interaction between SOX18 and the VCAM-1 promoter (Hosking et al., (2004) J Biol. Chem. 297:5314-5322). […] Without wishing to be bound by theory, it is understood that viral infection can induce an inflammatory response of endothelial cells, the latter being a result of VCAM-1 gene expression which is regulated by SOX18 activity (Huber J. (1994) J Virol. 68(6):3453-8). Put another way, the expression of VCAM-1 is driven by SOX18 so upon virus infection, SOX18 binds to the VCAM promoter and induces expression of VCAM.
The compounds described in Table 2 were tested by the VCAM-1 luciferase reporter assay. The results are shown in Table 2 under the column %inhibition of SOX18.

[2] = system: Kaposi sarcoma herpesvirus (KSHV); test: KLEC genome copy number assay in KSHV-infected primary human dermal lymphatic endothelial cells; conditions: KSHV-infected LECs, 6 days
Protocol: The relative expression of KSHV from control was quantified and single values from n=3 technical replicates are shown. Bars represent mean + SD. P values were calculated using a 2-way ANOVA (left) and ordinary one way-ANOVA (right) followed by Dunnett’s multiple comparison test.
(§1) KSHV-infected cells were incubated with the indicated inhibitor at the concentrations stated in the Figure panels for six days prior to analysis. HeLa cells were incubated with the indicated inhibitor at the concentrations stated in the Figure panels for 24 hours prior to analysis.
Primary human dermal lymphatic (C-12216) endothelial cells (LECs) were purchased from Promocell and grown in Lonza EBM-2 (00190860) supplemented with EGMTM-2 MV Microvascular Endothelial SingleQuotsTM(CC-4147). Cell from passage 1-3 were used.
rKSHV.219 was produced from iSLK.219 cells reactivated using 0.2 µg/ml doxycycline and 1.35 mM NaB for 72 h. Supernatant was harvested, spun down (2000 rpm 5 min) and sterile filtered using […] pore-size filters. Subsequently the supernatant was ultracentrifuged at 22000 rpm for 2 h. The concentrated virus was then aliquoted and stored at -80° C.
Equal number of LECs were seeded into 6-well assay-plates and incubated at 37° C. & 5% CO2 until 80% confluency. After reaching confluency, LECs were infected with rKSHV.219 and incubated at 37° C. & 5% CO2 for 3 days, making sure that the cell density remained similar. Cell were subsequently mixed at a 2:3 ratio with uninfected LECs for 2 days. Once GFP expression and cell spindling was observed the culture medium was replaced with medium containing the experimental compounds with 0.25% DMSO (v/v) at concentrations from 0.1 uM to 50 uM. After 3 days of incubation, the cells were replenished with new medium containing experimental compounds and incubated for 3 more days.
After compound incubation, cells were collected and genomic and viral DNA was extracted using the NucleoSpin Tissue Kit (Macherey-Nagel, 740952) following the kit’s standard protocol. qPCR was subsequently completed (SYBR Green, ThermoFisher K0222) in triplicates using primers for viral K8.1 and Human genomic actin. K8.1 forward primer: […] (SEQ ID NO:1); reverse primer: […] (SEQ ID NO:2). Genomic acid forward primer: […] (SEQ ID NO:3); reverse primer: […] (SEQ ID NO:4).
A KLEC assay was used to examine the ability of the compounds to inhibit viral copy number in virus infected primary human dermal lymphatic endothelial cells (LECs).

SOX18 [3] = molecular target: T2, SOX18 (Homo sapiens, UniProt P35713); test: SOX18 luciferase reporter assay (7XTR and OriA reporters) in HeLa cells; conditions: HeLa cells transfected with SOX18 and 7xTR or OriA reporter, 24 hours treatment (FIG. 2)
T2 construct: expressed in transfected cells; host or cells: HeLa
T2 sequence (P35713 1-384): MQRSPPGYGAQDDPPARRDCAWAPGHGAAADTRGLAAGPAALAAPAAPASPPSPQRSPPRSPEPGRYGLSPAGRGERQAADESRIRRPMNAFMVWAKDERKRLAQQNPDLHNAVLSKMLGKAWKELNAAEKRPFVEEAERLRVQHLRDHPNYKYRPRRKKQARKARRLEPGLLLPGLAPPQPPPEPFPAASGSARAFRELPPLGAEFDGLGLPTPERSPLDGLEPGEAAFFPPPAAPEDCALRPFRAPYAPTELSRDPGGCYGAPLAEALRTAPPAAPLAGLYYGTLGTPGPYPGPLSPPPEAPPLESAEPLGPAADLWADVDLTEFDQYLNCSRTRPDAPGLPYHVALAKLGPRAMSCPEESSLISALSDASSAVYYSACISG
Protocol: Luciferase signal was quantified and single values from n=3 technical replicates are shown. Data points represent mean + SD. P values were calculated using a 2-way and ordinary one way ANOVA followed by Dunnett’s multiple comparison test.
as §1
HeLa cells were cultured in DMEM containing 10% FCS, 1% L-glutamine and 1% pen/strep at 37° C. & 5% CO2. Cells were seeded at a density of 7000 cells per well in 125 µL of the maintenance medium in a 96-well format for 24 hours.
Plasmids were transfected using FuGENE HD Transfection Reagent (Promega E2311) (1:4 DNA to reagent ratio) and Opti-MEM (ThermoFisher 31985062). OriA-luc negative control and experimental wells contained 25 ng OriA-luc plasmid and 10 ng SOX18 plasmid per well, positive control contained 25 ng OriA-luc plasmid and 10 ng mCherry plasmid per well. 7XTR-luc negative control and experimental wells contained 50 ng 7XTR-luc plasmid and 20 ng SOX18 plasmid per well, positive control contained 50 ng 7XTR-luc plasmid and 20 ng mCherry plasmid per well. Cell were incubated for 18 hours before cells were replenished with new medium containing experimental compounds and incubated for 24 hours.
Luminescence was measured by adding an equal volume of Steady-Glo reagent to cells at room temperature and luminescence was quantified using the FLUOstar plate reader (BMG Labtech, FLUOstar Omega; 4 sec intervals per well).
Activation of these genes was measured using HeLa cells that were transfected with luciferase-reporters harbouring either seven copies of the TR (7XTR) or the OriA promoter fused to OriLyt upstream of an SV40 promoter and a firefly luciferase reporter. ORF, that binds to the OriLyt and is a potent activator of this reporter (Chen J et al., (2009) Virology 386:290-302) was used as a positive control. […]

Row | SMILES | %inhibition of Sox18 (SOX18 [1]) [%] | further results
1 | O=C(O)c1c(O)cc(Cl)cc1CCc1ccc2ccccc2c1 [GB019, 4-chloro-2-hydroxy-6-(2-(naphthalen-2-yl)ethyl)benzoic acid] | 54.02 | 
2 | Cc1cc(O)c(C(=O)O)c(CCc2ccc3ccccc3c2)c1 [GB012, 2-hydroxy-4-methyl-6-(2-(naphthalen-2-yl)ethyl)benzoic acid] | 96.7 | 
3 | O=C(O)c1c(O)cccc1CCc1ccccc1 [GB003, 2-hydroxy-6-phenethylbenzoic acid] | 49.18 | 
4 | COc1cccc(/C=C/c2ccc3ccccc3c2)c1C(=O)O [GB002, (E)-2-methoxy-6-(2-(naphthalen-2-yl)vinyl)benzoic acid] | 30.78 | reduction in KSHV genome copy number (fold change) ([2]; 50 µM): Significant reduction in genome copy number; interference with SOX18-mediated gene transcription (luciferase signal) (SOX18 [3]): interferes with SOX18-mediates gene transcription
5 | COC(=O)c1c(O)cccc1CCc1ccc(Cl)cc1 [GB028, methyl 2-(4-chlorophenethyl)-6-hydroxybenzoate] | 48.31 | 
6 | COc1ccc(CCc2cccc(OC)c2C(=O)O)cc1 [GB005, 2-methoxy-6-(4-methoxyphenethyl)benzoic acid] | 25.32 | 
7 | COc1cccc(CCc2cccc3ccccc23)c1C(=O)O [GB027, 2-methoxy-6-(2-(naphthalen-1-yl)ethyl)benzoic acid] | 47.43 | 
8 | O=C(O)c1c(O)cccc1CCc1ccc2ccccc2c1 [GB001, 2-hydroxy-6-(2-(naphthalen-2-yl)ethyl)benzoic acid] | 99.10 | reduction in KSHV genome copy number (fold change) ([2]; 10 µM): Significant reduction in genome copy number; reduction in KSHV genome copy number (fold change) ([2]; 50 µM): Significant reduction in genome copy number; interference with SOX18-mediated gene transcription (luciferase signal) (SOX18 [3]): interferes with SOX18-mediates gene transcription
9 | COc1cc(O)c(C(=O)O)c(CCc2ccc3ccccc3c2)c1 [GB025, 2-hydroxy-4-methoxy-6-(2-(naphthalen-2-yl)ethyl)benzoic acid] | 67.19 | 
10 | COC(=O)c1c(O)cccc1/C=C/c1ccccc1 [GB026, methyl (E)-2-hydroxy-6-styrylbenzoate] | 49.66 | 
11 | O=C(O)c1c(O)cccc1CCc1ccc(Cl)cc1Cl [GB004, 2-(2,4-dichlorophenethyl)-6-hydroxybenzoic acid] | 48.26 | reduction in KSHV genome copy number (fold change) ([2]; 5 µM): Significant reduction in genome copy number; interference with SOX18-mediated gene transcription (luciferase signal) (SOX18 [3]): interferes with SOX18-mediates gene transcription
12 | COc1cccc(COCc2ccc3ccccc3c2)c1C(=O)O [GB006, 2-methoxy-6-((naphthalen-2-ylmethoxy)methyl)benzoic acid] | 19.33 | 
